Key:
Format in all cases: biochemical
[1] = target: T1, human IR (hIR) (Homo sapiens, UniProt P06213); test: TR-FRET kinase assay of purified hIR; settings: activated hIR 0.5 nM, 10 μM ATP, values given as pIC50 category
T1 construct: containing amino acid residues 979-1382 of human IR; made in house; host or cells: Sf9 cells (baculovirus), same process as hIGF1R

[2] = target: ALK (Homo sapiens, UniProt Q9UM73); test: ALK enzyme assay (HTRF); settings: 0.25 nM ALK, 15.0 μM ATP, values given as pIC50 category
Chain of ALK (Q9UM73 19-1620): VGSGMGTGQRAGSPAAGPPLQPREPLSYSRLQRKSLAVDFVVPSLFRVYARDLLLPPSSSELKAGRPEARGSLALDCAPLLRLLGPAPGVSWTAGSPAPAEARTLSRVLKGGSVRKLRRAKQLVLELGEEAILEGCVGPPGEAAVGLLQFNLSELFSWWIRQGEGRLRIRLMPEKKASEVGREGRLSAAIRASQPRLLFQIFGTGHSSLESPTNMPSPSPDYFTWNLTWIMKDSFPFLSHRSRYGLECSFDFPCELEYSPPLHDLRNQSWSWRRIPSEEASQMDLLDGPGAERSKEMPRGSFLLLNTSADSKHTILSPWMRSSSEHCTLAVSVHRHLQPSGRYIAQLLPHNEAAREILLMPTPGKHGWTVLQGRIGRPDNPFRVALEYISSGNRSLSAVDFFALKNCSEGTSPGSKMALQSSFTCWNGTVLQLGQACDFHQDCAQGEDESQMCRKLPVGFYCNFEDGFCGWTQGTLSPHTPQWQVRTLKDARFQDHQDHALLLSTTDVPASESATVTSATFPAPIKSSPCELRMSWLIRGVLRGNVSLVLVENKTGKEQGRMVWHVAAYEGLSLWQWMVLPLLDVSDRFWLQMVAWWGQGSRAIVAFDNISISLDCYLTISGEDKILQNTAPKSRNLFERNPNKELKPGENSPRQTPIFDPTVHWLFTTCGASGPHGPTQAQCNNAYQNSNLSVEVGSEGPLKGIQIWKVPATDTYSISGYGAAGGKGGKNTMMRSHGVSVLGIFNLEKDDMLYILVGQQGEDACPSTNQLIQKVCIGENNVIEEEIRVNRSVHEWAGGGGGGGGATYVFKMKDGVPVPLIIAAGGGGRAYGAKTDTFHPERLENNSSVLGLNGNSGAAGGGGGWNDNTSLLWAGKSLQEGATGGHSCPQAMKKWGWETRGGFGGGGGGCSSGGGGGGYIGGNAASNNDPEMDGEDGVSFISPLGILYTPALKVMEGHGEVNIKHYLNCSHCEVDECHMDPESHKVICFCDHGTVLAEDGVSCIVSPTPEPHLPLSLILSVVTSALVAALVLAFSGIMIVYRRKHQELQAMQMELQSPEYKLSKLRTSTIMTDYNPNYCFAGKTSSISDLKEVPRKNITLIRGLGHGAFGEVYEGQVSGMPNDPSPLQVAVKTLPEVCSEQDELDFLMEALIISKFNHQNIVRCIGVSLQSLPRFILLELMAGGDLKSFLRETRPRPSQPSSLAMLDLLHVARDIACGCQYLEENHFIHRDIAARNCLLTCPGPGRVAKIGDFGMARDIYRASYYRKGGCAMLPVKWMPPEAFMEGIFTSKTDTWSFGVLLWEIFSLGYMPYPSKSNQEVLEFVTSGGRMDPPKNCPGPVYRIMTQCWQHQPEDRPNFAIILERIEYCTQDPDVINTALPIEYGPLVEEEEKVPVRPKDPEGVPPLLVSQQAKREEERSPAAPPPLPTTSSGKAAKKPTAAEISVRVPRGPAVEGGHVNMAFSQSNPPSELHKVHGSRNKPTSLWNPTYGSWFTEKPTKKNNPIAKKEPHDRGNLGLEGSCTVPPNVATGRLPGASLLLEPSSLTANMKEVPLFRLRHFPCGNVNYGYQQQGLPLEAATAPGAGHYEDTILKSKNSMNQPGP
How it was run: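 Final compound range 0.00017 to 10 μM (twelve 1:3 dilutions). Kinase reaction with ATP and biotinylated synthetic peptide runs 120 min at 20° C, stopped with EDTA; phosphotyrosine detected by HTRF after 60 min. Inhibition referenced to DMSO (1%) and EDTA (0.1 M) controls, curve-fitted.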

[3] = target: T2, human IGF1R (hIGF1R) (Homo sapiens, UniProt P08069); test: TR-FRET kinase assay of purified hIGF1R; settings: activated hIGF1R 0.5 nM, 10 μM ATP, values given as pIC50 category, read-out: IGF-1R pIC50 (converted)
T2 construct: containing amino acid residues 957-1367 of human IGF1R; made in house; host or cells: Sf9 cells (baculovirus)
T2 sequence (P08069 957-1367): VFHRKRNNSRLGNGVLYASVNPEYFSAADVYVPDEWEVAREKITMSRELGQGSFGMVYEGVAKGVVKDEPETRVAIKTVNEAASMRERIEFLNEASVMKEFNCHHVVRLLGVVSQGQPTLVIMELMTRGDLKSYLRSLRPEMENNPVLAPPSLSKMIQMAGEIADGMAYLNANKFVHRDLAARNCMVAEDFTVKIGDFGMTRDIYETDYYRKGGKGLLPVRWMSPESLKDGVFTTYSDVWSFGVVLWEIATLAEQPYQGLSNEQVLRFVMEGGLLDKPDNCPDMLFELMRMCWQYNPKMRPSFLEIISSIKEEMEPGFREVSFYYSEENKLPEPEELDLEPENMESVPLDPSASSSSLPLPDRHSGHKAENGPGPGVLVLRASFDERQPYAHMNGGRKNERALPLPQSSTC

T1 sequence (P06213 979-1382): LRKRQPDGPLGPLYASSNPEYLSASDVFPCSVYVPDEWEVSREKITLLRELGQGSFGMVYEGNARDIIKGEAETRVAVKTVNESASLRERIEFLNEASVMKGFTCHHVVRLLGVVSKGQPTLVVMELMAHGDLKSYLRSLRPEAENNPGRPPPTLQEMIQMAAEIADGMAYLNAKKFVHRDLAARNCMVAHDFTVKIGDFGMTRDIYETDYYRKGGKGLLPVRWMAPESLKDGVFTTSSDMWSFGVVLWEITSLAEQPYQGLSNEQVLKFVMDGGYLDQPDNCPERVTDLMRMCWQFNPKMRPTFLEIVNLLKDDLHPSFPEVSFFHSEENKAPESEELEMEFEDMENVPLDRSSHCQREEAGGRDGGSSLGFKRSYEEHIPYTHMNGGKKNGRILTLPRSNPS

Compound | IC50 [1] [nM] | IC50 [2] [nM] | IC50 [3] [nM]
COc1cc2c(cc1Nc1nc(Nc3cccc(F)c3C(N)=O)c3cc[nH]c3n1)N(C(=O)CN1CCOCC1)CC2 [Example 185, 2-fluoro-6-[(2-{[5-(methyloxy)-1-(4-morpholinylacetyl)-2,3-dihydro-1H-indol-6-yl]amino}-1H-pyrrolo[2,3-d]pyrimidin-4-yl)amino]benzamide] | 5.01 to 158 | 5.01 to 200 | 5.01 to 200
COc1cc2c(cc1Nc1nc(Nc3cccc(F)c3C(N)=O)c3cc[nH]c3n1)N(C(=O)CN1CCN(C(C)C)CC1)CC2 [Example 186, 2-fluoro-6-[(2-{[1-{[4-(1-methylethyl)-1-piperazinyl]acetyl}-5-(methyloxy)-2,3-dihydro-1H-indol-6-yl]amino}-1H-pyrrolo[2,3-d]pyrimidin-4-yl)amino]benzamide] | 5.01 to 158 | 5.01 to 200 | 5.01 to 200
COc1cc2c(cc1Nc1nc(Nc3cccc(F)c3C(N)=O)c3cc[nH]c3n1)N(C(=O)CCN1CCOCC1)CC2 [Example 187, 2-fluoro-6-{[2-({5-(methyloxy)-1-[3-(4-morpholinyl)propanoyl]-2,3-dihydro-1H-indol-6-yl}amino)-1H-pyrrolo[2,3-d]pyrimidin-4-yl]amino}benzamide] | 5.01 to 158 | 1.26 to 3.98 | 5.01 to 200
COc1cc2c(cc1Nc1nc(Nc3cccc(F)c3C(N)=O)c3cc[nH]c3n1)N(C(=O)CCN1CCN(C(C)C)CC1)CC2 [Example 188, 2-fluoro-6-[(2-{[1-{3-[4-(1-methylethyl)-1-piperazinyl]propanoyl}-5-(methyloxy)-2,3-dihydro-1H-indol-6-yl]amino}-1H-pyrrolo[2,3-d]pyrimidin-4-yl)amino]benzamide] | 5.01 to 158 | 5.01 to 200 | 5.01 to 200
CCCN(CCC)[C@@H](C)C(=O)N1CCc2cc(OC)c(Nc3nc(Nc4cccc(F)c4C(=O)NC)c4cc[nH]c4n3)cc21 [Example 191, 2-[(2-{[1-(N,N-dipropyl-L-alanyl)-5-(methyloxy)-2,3-dihydro-1H-indol-6-yl]amino}-1H-pyrrolo[2,3-d]pyrimidin-4-yl)amino]-6-fluoro-N-methylbenzamide] | 5.01 to 158 | 5.01 to 200 | 5.01 to 200
CNC(=O)c1c(F)cccc1Nc1nc(Nc2cc3c(cc2OC)CCN3C(=O)C(C)(C)O)nc2[nH]ccc12 [Example 193, 2-fluoro-6-[(2-{[1-(2-hydroxy-2-methylpropanoyl)-5-(methyloxy)-2,3-dihydro-1H-indol-6-yl]amino}-1H-pyrrolo[2,3-d]pyrimidin-4-yl)amino]-N-methylbenzamide] | 5.01 to 158 | 5.01 to 200 | 5.01 to 200

The next molecules have a lower IC50 [1] than those just listed; values first:

IC50 [1] [nM] | IC50 [2] [nM] | IC50 [3] [nM] | Compound
0.251 to 1 | 1.26 to 3.98 | 0.251 to 1 | COc1cc2c(cc1Nc1nc(Nc3cc(F)cc(F)c3C(N)=O)c3cc[nH]c3n1)N(C(=O)CN(C)C)CC2 [Example 189, 2-[(2-{[1-(N,N-dimethylglycyl)-5-(methyloxy)-2,3-dihydro-1H-indol-6-yl]amino}-1H-pyrrolo[2,3-d]pyrimidin-4-yl)amino]-4,6-difluorobenzamide]
0.251 to 1 | 0.251 to 1 | 0.251 to 1 | CNC(=O)c1c(F)cc(F)cc1Nc1nc(Nc2cc3c(cc2OC)CCN3C(=O)CN(C)C)nc2[nH]ccc12 [Example 190, 2-[(2-{[1-(N,N-dimethylglycyl)-5-(methyloxy)-2,3-dihydro-1H-indol-6-yl]amino}-1H-pyrrolo[2,3-d]pyrimidin-4-yl)amino]-4,6-difluoro-N-methylbenzamide]
1.26 to 3.98 | 5.01 to 200 | 5.01 to 200 | CCCN(CCC)[C@@H](C)C(=O)N1CCc2cc(OC)c(Nc3nc(Nc4cccc(F)c4C(N)=O)c4cc[nH]c4n3)cc21 [Example 192, 2-[(2-{[1-(N,N-dipropyl-L-alanyl)-5-(methyloxy)-2,3-dihydro-1H-indol-6-yl]amino}-1H-pyrrolo[2,3-d]pyrimidin-4-yl)amino]-6-fluorobenzamide]

Source: patent publication US7981903B2, “2-[2-{phenylamino}-1H-pyrrolo[2,3-D]pyrimidin-4-yl)amino] benzamide derivatives as IGF-1R inhibitors for the treatment of cancer” (GlaxoSmithKline LLC, priority 2007, dated 2011)
